Columns and labels:
[1] = test system: T1, Blg163; assay: hydrolysis kinetics, […] substrate; format: biochemical, uncultured bacterium (coral microbial metagenome); conditions: citrate buffer, pH 7.0, 30 °C, 5 min
T1 construct: full-length ORF 1341 bp, 447 residues (Met1 to Ser447), GH1; pEASY-E1 vector, His-tag (Ni-NTA) apparently kept; expressed in E. coli BL21(DE3) pLysS; best hits Rhodobacteraceae bacterium NVK46632.1 (homologue)

[2] = test system: T1, Blg163; assay: p-nitrophenol release, absorbance at […] nm; format: biochemical, uncultured bacterium (coral microbial metagenome); conditions: citrate buffer, pH 7.0, 30 °C, 5 min

Compound	Km [1] [µM]	Km [2] [µM]
OC[C@H]1O[C@@H](OC[C@H]2OC(O)[C@H](O)[C@@H](O)[C@@H]2O)[C@H](O)[C@@H](O)[C@@H]1O (stereo partly drawn) [gentiobiose]	720	
OC[C@H]1O[C@@H](O[C@H]2[C@H](O)[C@@H](O)C(O)O[C@@H]2CO)[C@H](O)[C@@H](O)[C@@H]1O (stereo partly drawn) [cellobiose]	450	
O=[N+]([O-])c1ccc(O[C@@H]2O[C@H](CO)[C@@H](O)[C@H](O)[C@H]2O)cc1 [p-Nitrophenyl-β-D-glucopyranoside]		320
